From PubChem BioAssay AID1259407 (Chemical Carcinogenesis Research Information System (CCRIS), 2018) come the findings set out here.

The structures appear in SMILES notation. Calls of active or inactive are those of the source. No rule for the calls is given here.

For the data set, the system named is CCRIS mutagenicity, Ames/micronucleus/aberration tests. The data set can be described thus: CCRIS mutagenicity studies.
Setting [1] is: Test System: AMES SALMONELLA TYPHIMURIUM, Strain/Indicator: TA98, Metabolic Activation: NONE, Method: STANDARD PLATE.
[2] abbreviates: Test System: AMES SALMONELLA TYPHIMURIUM, Strain/Indicator: TA98, Metabolic Activation: RAT, LIVER, S-9, AROCLOR 1254, Method: PREINCUBATION
Where [3] appears, read: Test System: AMES SALMONELLA TYPHIMURIUM, Strain/Indicator: TA98, Metabolic Activation: RAT, LIVER, S-9, AROCLOR 1254, Method: STANDARD PLATE.
Setting [4] is: Test System: AMES SALMONELLA TYPHIMURIUM, Strain/Indicator: TA100, Metabolic Activation: NONE, Method: PREINCUBATION
Where [5] appears, read: Test System: AMES SALMONELLA TYPHIMURIUM, Strain/Indicator: TA100, Metabolic Activation: NONE, Method: STANDARD PLATE.
The mark [6] stands for this setting: Test System: AMES SALMONELLA TYPHIMURIUM, Strain/Indicator: TA100, Metabolic Activation: RAT, LIVER, S-9, AROCLOR 1254, Method: PREINCUBATION
[7] abbreviates: Test System: AMES SALMONELLA TYPHIMURIUM, Strain/Indicator: TA100, Metabolic Activation: RAT, LIVER, S-9, AROCLOR 1254, Method: STANDARD PLATE.
Setting [8] is: Test System: AMES SALMONELLA TYPHIMURIUM, Strain/Indicator: TA102, Metabolic Activation: NONE, Method: STANDARD PLATE.

For `O=[N+]([O-])c1cc2c3ccccc3ccc2c2ccccc12`, the mutagenic call is “active; positive” (Test System: AMES SALMONELLA TYPHIMURIUM, Strain/Indicator: TA98, Metabolic Activation: HAMSTER LIVER S-9, 6-NITROCHRYSENE, Method: PREINCUBATION); “active; positive” (Test System: AMES SALMONELLA TYPHIMURIUM, Strain/Indicator: TA98, Metabolic Activation: HAMSTER LIVER S-9, Method: PREINCUBATION); “active; positive” under setting [1]; “active; positive” under setting [2]; “active; positive” under setting [3]; “active; positive” (Test System: AMES SALMONELLA TYPHIMURIUM, Strain/Indicator: TA98, Metabolic Activation: RAT, LIVER, S-9, Method: PREINCUBATION). The mutagenic call was “active; positive” (Test System: AMES SALMONELLA TYPHIMURIUM, Strain/Indicator: TA100, Metabolic Activation: HAMSTER LIVER S-9, 6-NITROCHRYSENE, Method: PREINCUBATION); “active; positive” (Test System: AMES SALMONELLA TYPHIMURIUM, Strain/Indicator: TA100, Metabolic Activation: HAMSTER LIVER S-9, Method: PREINCUBATION); “active; positive” under setting [4]; “active; positive” under setting [5]; “active; positive” under setting [6]; “active; positive” under setting [7]. In addition, the mutagenic call (Test System: AMES SALMONELLA TYPHIMURIUM, Strain/Indicator: TA100, Metabolic Activation: RAT, LIVER, S-9, Method: PREINCUBATION) is “active; positive”; the mutagenic call (Test System: AMES SALMONELLA TYPHIMURIUM, Strain/Indicator: TA102, Metabolic Activation: HAMSTER LIVER S-9, 6-NITROCHRYSENE, Method: PREINCUBATION) was “active; positive”; the mutagenic call (Test System: AMES SALMONELLA TYPHIMURIUM, Strain/Indicator: TA102, Metabolic Activation: HAMSTER LIVER S-9, Method: PREINCUBATION) was “active; positive”; the mutagenic call (Test System: AMES SALMONELLA TYPHIMURIUM, Strain/Indicator: TA102, Metabolic Activation: NONE, Method: PREINCUBATION) is “inactive; negative”; the mutagenic call (Test System: CHINESE HAMSTER OVARY, Strain/Indicator: CHO-K1-BH4 (HGPRT)/6-THIOGUANINE, Metabolic Activation: NONE, Method: STANDARD PLATE) was “inactive; negative”; the mutagenic call (Test System: CHINESE HAMSTER OVARY, Strain/Indicator: CHO-K1-BH4 (HGPRT)/6-THIOGUANINE, Metabolic Activation: RAT, LIVER, S-9, AROCLOR 1254, Method: STANDARD PLATE) is “active; positive”. Besides, the mutagenic call reads like this: (Test System: CHINESE HAMSTER OVARY, Strain/Indicator: CHO-UV5 (HGPRT)/6-THIOGUANINE, Metabolic Activation: NONE, Method: STANDARD PLATE) “active; positive”; (Test System: CHINESE HAMSTER OVARY, Strain/Indicator: CHO-UV5 (HGPRT)/6-THIOGUANINE, Metabolic Activation: RAT, LIVER, S-9, AROCLOR 1254, Method: STANDARD PLATE) “active; positive”.
As for `CNC(=O)c1cccc2c(Nc3ccc(NS(C)(=O)=O)cc3OC)c3cccc(C)c3nc12`, the mutagenic call is “inactive; negative” under setting [1]; “inactive; negative” under setting [3]; “inactive; negative” under setting [5]; “inactive; negative” under setting [7]; “active; positive” under setting [8]; “active; positive” (Test System: AMES SALMONELLA TYPHIMURIUM, Strain/Indicator: TA102, Metabolic Activation: RAT, LIVER, S-9, AROCLOR 1254, Method: STANDARD PLATE). For the same molecule, the mutagenic call is, setting by setting: (Test System: AMES SALMONELLA TYPHIMURIUM, Strain/Indicator: TA1537, Metabolic Activation: NONE, Method: STANDARD PLATE) “active; positive”; (Test System: AMES SALMONELLA TYPHIMURIUM, Strain/Indicator: TA1537, Metabolic Activation: RAT, LIVER, S-9, AROCLOR 1254, Method: STANDARD PLATE) “active; positive”; (Test System: CHINESE HAMSTER V-79, Strain/Indicator: V-79/6-THIOGUANINE, Metabolic Activation: NONE, Method: STANDARD PLATE) “active; positive”; (Test System: CHINESE HAMSTER V-79, Strain/Indicator: V-79/OUABAIN, Metabolic Activation: NONE, Method: STANDARD PLATE) “inactive; negative”.
As to `C[C@H]1SC[C@@H](C(=O)N[C@@H](Cc2cnc[nH]2)C(=O)N2CCC[C@H]2C(N)=O)NC1=O`, the mutagenic call reads like this: (Test System: AMES SALMONELLA TYPHIMURIUM, Strain/Indicator: TA98, Metabolic Activation: NONE, Method: PREINCUBATION) “inactive; negative”; under setting [2], “inactive; negative”; under setting [4], “inactive; negative”; under setting [6], “inactive; negative”; (Test System: AMES SALMONELLA TYPHIMURIUM, Strain/Indicator: TA1535, Metabolic Activation: NONE, Method: PREINCUBATION) “inactive; negative”; (Test System: AMES SALMONELLA TYPHIMURIUM, Strain/Indicator: TA1535, Metabolic Activation: RAT, LIVER, S-9, AROCLOR 1254, Method: PREINCUBATION) “inactive; negative”. Also, the mutagenic call (Test System: AMES SALMONELLA TYPHIMURIUM, Strain/Indicator: TA1537, Metabolic Activation: NONE, Method: PREINCUBATION) is “inactive; negative”; the mutagenic call (Test System: AMES SALMONELLA TYPHIMURIUM, Strain/Indicator: TA1537, Metabolic Activation: RAT, LIVER, S-9, AROCLOR 1254, Method: PREINCUBATION) is “inactive; negative”; the mutagenic call (Test System: E. COLI, Strain/Indicator: WP2 UVRA, Metabolic Activation: NONE, Method: PREINCUBATION) was “inactive; negative”; the mutagenic call (Test System: E. COLI, Strain/Indicator: WP2 UVRA, Metabolic Activation: RAT, LIVER, S-9, AROCLOR 1254, Method: PREINCUBATION) is “inactive; negative”.
Consider `CCCCCCC(O)CCCCCCCCCCC(=O)O` (stereo unspecified), for which the mutagenic call is, setting by setting: (Test System: AMES SALMONELLA TYPHIMURIUM, Strain/Indicator: TA97, Metabolic Activation: NONE, Method: STANDARD PLATE) “inactive; negative”; (Test System: AMES SALMONELLA TYPHIMURIUM, Strain/Indicator: TA97, Metabolic Activation: S-9, Method: STANDARD PLATE) “inactive; negative”; under setting [1], “inactive; negative”; under setting [5], “inactive; negative”; (Test System: AMES SALMONELLA TYPHIMURIUM, Strain/Indicator: TA100, Metabolic Activation: S-9, Method: STANDARD PLATE) “inactive; negative”; under setting [8], “inactive; negative”. The mutagenic call by setting is: (Test System: AMES SALMONELLA TYPHIMURIUM, Strain/Indicator: TA102, Metabolic Activation: S-9, Method: STANDARD PLATE) “inactive; negative”; (Test System: E.COLI, Strain/Indicator: WP2 (PKM101), Metabolic Activation: NONE, Method: STANDARD PLATE) “inactive; negative”; (Test System: E.COLI, Strain/Indicator: WP2 (PKM101), Metabolic Activation: S-9, Method: STANDARD PLATE) “inactive; negative”.
As to `CCCCCCCC(O)C=CC=O` (stereo unspecified), the mutagenic call (End Point: IN VITRO CHROMOSOMAL ABERRATIONS, Test System: RAT HEPATOCYTES, Metabolic Activation: NONE) was “active; positive” and the mutagenic call (End Point: IN VITRO MICRONUCLEUS, Test System: RAT HEPATOCYTES, Metabolic Activation: NONE) is “inactive; negative”.
